Four compounds from patent US4829073A, “Thiadiazole oxides for treating gastrointestinal motility disorders” (Bristol-Myers Company, priority 1988, dated 1989) can be followed below.

Like-named read-outs stand apart in the source and are kept apart here.

The test system of series [1] is gastric emptying of a solid meal. The series is described as follows: Gastric emptying of solid meal in conscious dogs. Format: in vivo, beagle dogs. Particulars: for gastric half emptying time (T1/2) of a solid meal: control 208 ± 34, *P < .05; for half emptying time (t1/2) of a solid meal, in words: orally, conscious dogs. The procedure: Under aseptic conditions 10 beagle dogs were implanted with T-shaped titanium duodenal cannulas. The dogs were allowed to recover from surgery for 3 weeks. Each dog before the test was fasted for 16-18 hours. Water was provided ad lib. On the day of the test, the duodenal cannula was opened and the stomach contents were drained. The cannula was closed again and the dog was dosed orally with either placebo (10cc saline) or with test compound in 10cc saline. […] The dry weight of this food is 36 grams. After the dog had ingested the food the cannula was opened and an insert was placed in the cannula which drained the chyme through the cannula into a beaker. This collection was continued for 5 hours and samples were collected every thirty minutes. The chyme was filtered and dried in an oven. The dry weight collected every thirty minutes was deducted from the dry weight of the food left in the stomach. A time response curve of gastric emptying was developed and t1/2, the time taken to empty 50% of the solid meal from the stomach was determined. The t1/2 for the test compound at various doses was compared with controls. Significance of differences was determined using paired t-test.

For the next series, the system named is rat gastric emptying. The series can be described thus: In vivo small animal gastroprokinetic activity: rat gastric emptying. Also on record: species or system male Sprague-Dawley rats. Particulars: normal rats; for ED50: Rattus norvegicus. The method, then:
IN VIVO SMALL ANIMAL GASTROPROKINETIC ACTIVITY The method used to assess rat gastric emptying is a modification of the procedures described by D. A. Droppleman et al., Journal of Pharmacological Methods, 4, 227-230 (1980). Test compounds (0.3 to 30 mg/kg in 1 ml/kg vehicle) are administered either orally or subcutaneously to male, Sprague-Dawley rats (160-180 g) that were fasted overnight. The test animals receive 2.5 ml of a freshly made milk plus ground rat chow meal by oral intubation, thirty or fifteen minutes following oral or subcutaneous administration, respectively. Rats are sacrificed 25 minutes following the test meal, and the stomachs are quickly excised. Each stomach containing the remaining meal is weighed intact on an analytical balance. To empty the contents before reweighing, each stomach is cut open, rinsed thoroughly and then blotted dry. The difference in weights indicates the amount of meal remaining in the stomach. The amount of meal retained is calculated as a percent of the total meal weight administered.

The subject of another series is rat fundic strip. The series is described as follows: Electrically stimulated isolated rat stomach fundus. In kind it is cell-based. The method, then: (§1) Two classical pharmacological preparations, the field stimulated guinea pig ileum and field stimulated rat fundic strip, are utilized to assess gastroprokinetic activity in vitro.
The rat fundic strip is prepared according to the method described by J. R. Vane, Brit. J. Pharmacol., 12, 344-349 (1957). For this preparation, strips are made by removing the fundal end of the stomach and slitting it open to form a sheet. Small cuts are made transversing the longitudinal muscle to produce two strips 3-4 cm in length. The tissues are mounted in a 20 ml organ bath containing Kreb's solution at 37° C. and are oxygenated with 95% O2 -5% CO2. Resting tension is adjusted to 1.0 g. Contractions are recorded by means of a force displacement transducer and a Beckman Dynograph Type R.
Once a consistent response to electrical field stimulation is established, varying amounts of a test compound are added to the bath. All compounds are administered three minutes prior to electrical stimulation at volumes of 0.2 ml to 0.6 ml for final bath concentrations of 0.1 μM thru 100 μM. Each tissue is thoroughly washed between each dose. A dose response curve is achieved by measuring the effect of increasing dose levels of test materials on the tissue contraction due to electrical field stimulation.

For series [2], the system named is guinea pig ileum (longitudinal muscle). The series can be described thus: Electrically stimulated isolated guinea pig ileum. In kind it is cell-based. The note with it: Cavia porcellus. The procedure:
as §1
A modification of the procedure described by W. D. M. Paton, J. Physiol. (Lond), 127, 40-41P (1955). Segments of the preterminal ileal tissue, 3-4 cm in length, are mounted in a 20 ml tissue bath. The tissues are perfused at 37° C. with a modified Krebs solution and continuously gassed with 95%O2 -5% CO2. The solution is prepared with millipore water and consists of (mM/L): NaCl 116, KCl 5, CaCl2 2.5, KH2 PO4 1.2, MgSO4.7H2 O 0.5, NaHCO3 25 and Glucose 11.1.
A force displacement transducer is attached to each tissue and the resting tension adjusted to 1.0 g. The tissues are allowed to equilibrate for one hour, with washes every twenty minutes, after the stimulator is engaged or until twitch height remains stable.
Dose response curves for test compounds are established by adding single doses of the material in increasing increments until a maximal effect is achieved. Compounds are administered at volumes ranging from 0.2 to 0.6 ml to give final bath concentrations of 0.1 μM thru 100 μM. The test materials remain in contact with the tissue for 2 to 3 minutes, until the peak effect is achieved, before thorough washing with Kreb's solution. […]

A further series concerns serotonin receptors. The series is described as follows: Radioligand binding to membrane receptors: serotonin. The method, then:
(§2) Radioligand binding studies to membrane receptors were carried out to assess the potential for interaction with other receptors. […] To assess any possible cardiovascular effects a bolus injection of the test compound at various doses was administered to anesthetized dogs. Thus, the compound of Example 1, at 5 mg/kg administered I.V., had no effect on heart rate or blood pressure in three anesthetized dogs.

Series [3] has as its system opossum lower esophageal sphincter (LES). The series can be described thus: Lower esophageal sphincter pressure in the anesthetized opossum. Format: in vivo. From the text: This procedure measures the effect of the test compounds on the opossum lower esophageal sphincter (LES) which closely resembles the human sphincter. In order to test the effects of compounds on LES resting pressure, a small tube perfused with water at a constant flow rate is passed through the anesthetized opossum esophagus and water pressure in the tube is monitored. The method is similar to that described by R. Goyal et al., Gastroenterology, 71, 62-67 (1976). An increase in esophageal tone is measured as an increase in pressure and reported as a percent increase of the control determination. The compound of Example 1 was given as a single bolus dose of 10 mg/kg I.V. in four opossums.

The subject of series [4] is heart rate or blood pressure. The series can be described thus: Cardiovascular effects in anesthetized dogs. Format: in vivo. Particulars: 5 mg/kg I.V. bolus; three anesthetized dogs. The procedure:
as §2

The test system of a further series is dopamine receptors. The series is described as follows: Radioligand binding to membrane receptors: dopamine. The procedure: as §2
The next series relates to benzodiazepine receptors. The series is described as follows: Radioligand binding to membrane receptors: benzodiazepine. The procedure: as §2
The test system of series [5] is circular smooth muscle contractile activity of the antral and duodenal portion of the stomach. The series is described as follows: Gastric contractile activity in the anesthetized dog. In kind it is in vivo, Male Beagle Dogs. Particulars: I.V. cumulative dosing 0.01 to 10 mg/kg. The method, then: The effect of test compounds on circular smooth muscle contractile activity of the antral and duodenal portion of the stomach are measured by strain gauge arches sewn on the serosal surface similar to the procedure described by […] et al., Digestion, 28, 205-209 (1983). Male Beagle Dogs, weighing 8 to 14 kg, are fasted overnight and then anesthetized with pentothal (thiopental sodium), 20 mg/kg and maintained with I.V. alpha-chloralose (100 mg/ml in PEG 400, diluted 1:1 with saline immediately before use) as needed, usually 100 mg/dose. The trachea is intubated for respiratory assistance if needed, and the right femoral artery and vein are cannulated to monitor blood pressure and administer I.V. solutions, respectively. The stomach and intestine are exposed by a midline incision, and a Walton-Brodie adjustable strain gauge arch is sewn on the ventral surface of the antrum of the stomach, 3-5 cm proximal to the pylorus. The arch is oriented to respond to contractions of the circular muscle, and the initial resting tension is set at 25 grams by adjusting the length of the arch. The preparation is allowed to stabilize for 1 to 2 hours. Fifteen minutes after observation of migrating motor complex phase III activity, test compounds are given every 10 minutes in a cumulative dosing manner beginning at 0.01 mg/kg to 10 mg/kg. The test compounds are dissolved in saline at concentrations that are dependent on the weight of each animal so that a constant volume will be administered at each dose level. […] The stomach contractions, the cumulative grams of tension developed by the stomach contractions, EKG, heart rate, blood pressure, and any additional contractile and/or electrical activities are recorded on a Beckman Dynograph. The results are expressed as the increased tension developed by the smooth muscles in response to the administration of test compound.

In the next series the test system is GABA receptors. The series is described as follows: Radioligand binding to membrane receptors: GABA. The method, then:
as §2

In series [6] the test system is calcium channel receptors. The series can be described thus: Radioligand binding to membrane receptors: calcium channel. The procedure:
as §2

Where [7] appears, read: 1.0 mg/kg P.O. (N = 3), 60 minutes before meal.
Where [8] appears, read: 3.0 mg/kg P.O. (N = 3), 60 minutes before meal.

In the case of `CCN(CC)CCNC(=O)c1cc(Cl)c(N)cc1OC` [Metoclopramide, metoclopramide, reference compound], the “gastric half emptying time (T1/2) of a solid meal” value (“gastric half emptying time” below) amounted to 2 ± 0.35 h in series [1] (0.1 mg/kg P.O. (N = 3), 30 min before meal) and 3.3 ± 0.233 h in series [1] (1.0 mg/kg P.O. (N = 3), 30 min before meal).
Regarding `NC1=NS(=O)(=O)N=C1NCCSCc1ccc(CN2CCCCC2)o1` [Example 2], the “gastric half emptying time” value in series [1] (setting [7]) was 1.83 ± 0.3 h. For the same compound, the “half emptying time (t1/2) of a solid meal, in words” value (“half emptying time … in words” below) in [1] (1.0 mg/kg) was “significantly decreased”.
A word on the ED50: it is the dose that gives a 50% effect, or the effect in half of the subjects. As a reminder, the EC50 is the concentration giving half of the maximal effect. Take `Nc1n[s+]([O-])nc1NCCSCc1ccc(CN2CCCCC2)o1` (stereo not shown) [Example 1, 3-Amino-4-{2-[(5-piperidinomethyl-2-furyl)methylthio]ethylamino}-1,2,5-thiadiazole 1-oxide]: the ED50 in the series with rat gastric emptying (sc, subcutaneous, 15 min before test meal, read-out: subcutaneous ED50 value, stomach emptying) came out at 0.4 mg/kg; with rat gastric emptying (oral, 30 min before test meal, read-out: oral ED50 value, stomach emptying), 2.9 mg/kg; in series [5] (Canis lupus familiaris, iv, 50% of approx. 20 grams mean maximal response, read-out: ED50 value (dose necessary to achieve 10 grams of tension)), 0.24 mg/kg. The “maximum response over control values, stomach emptying” value was 95±19% in the series with rat gastric emptying (oral) and 105±6% in the series with rat gastric emptying (subcutaneous). Besides, the EC50 was determined as 8.2 µM with rat fundic strip (bath concentrations 0.1 μM thru 100 μM, 37° C., 95% confidence limits in parentheses) and 224 µM in [2] (95% confidence limits of 84-1629, bath concentrations 0.1 μM thru 100 μM, 37° C., read-out: computer projected EC50 value). Besides, the Emax in the series on rat fundic strip (read-out: increase in contractile force, maximal response over control) amounted to 82 ± 10%; in [2] (read-out: increase in contractile amplitude, maximal response over control), 37 ± 4.8%. Also, the “binding to serotonin receptors” value in the series on serotonin receptors is “does not bind”. Further, the “increase in LES pressure” value in [3] (10 mg/kg I.V. single bolus, four opossums, percent increase of the control determination) amounted to 33%. The “inhibition of LES pressure following the initial increase” value in series [3] (I.V., higher doses than 10 mg/kg) was “no inhibition of LES pressure following the initial increase was observed”. Besides, the “effect on blood pressure” value in series [4] is “no effect”. For the same compound, the “effect on heart rate” value in series [4] was “no effect”. In the series on dopamine receptors, the “binding to dopamine receptors” value is recorded as “does not bind”. The “binding to benzodiazepine receptors” value with benzodiazepine receptors is “does not bind”. In addition, the duodenal tension entry in series [5] is “increased the duodenal tension dose dependently”. For the same compound, the “maximal response of developed tension” value in [5] came to 24±5 grams. Further, the “binding to GABA receptors” value in the series with GABA receptors is on record as “does not bind”. In series [6], the “binding to calcium channel receptors” value is listed as “does not bind”. Also, the “gastric half emptying time” value stood at 3.4 ± 0.533 h in series [1] (0.1 mg/kg P.O. (N = 3), 60 minutes before meal); 1.6 ± 0.233 h in [1] (setting [7]); 1.63 ± 0.267 h in series [1] (setting [8]). Moreover, the “half emptying time … in words” value in series [1] (1.0 mg/kg) is “significantly decreased”.
On to `CNC(=C[N+](=O)[O-])NCCSCc1ccc(CN(C)C)o1` [Ranitidine, ranitidine, reference compound], for which the “gastric half emptying time” value in series [1] (setting [7]) was found to be 3.43 ± 0.517 h; in series [1] (setting [8]), 3.43 ± 0.4 h. In addition, the “half emptying time … in words” value in series [1] (at the tested doses (1.0 and 3.0 mg/kg)) is “ineffective”.
